Values joined by “and” are separate entries in the source; they are usually repeats but may differ in a detail not shown here. Equal values may be shown once.
How the values were obtained:
phosphodiesterase [1] = target: T1, phosphodiesterase (Homo sapiens, UniProt O00408); test: In vitro phosphodiesterase enzyme assays of Example 39 (IC50 determination); format: biochemical
T1 construct: IC50; other: Phosphodiesterase 2 (h); nH; other: Hill coefficient, Phosphodiesterase 2 (h)
Description: (§1) The in vitro pharmacology of 5-(2-(4-Methoxyphenyl)-1H-benzo[d]imidazol-1-yl)pentylboronic acid was determined with several enzymes as described in Table 19 using the experimental conditions of Table 18.
(§2) Results. The corresponding inhibition curves were also determined (data not shown). Each is within accepted limits of the historic average ±0.5 log units. Table 21 contains the mean experimental values for the […] as performed as described above.

phosphodiesterase [2] = target: T2, phosphodiesterase (Homo sapiens, UniProt O76074); test: as above; format: biochemical
T2 construct: IC50; other: Phosphodiesterase 5 (h); nH; other: Hill coefficient, Phosphodiesterase 5 (h)
Description: as §1, §2

phosphodiesterase [3] = target: T3, phosphodiesterase (Bos taurus, UniProt P11541+P23439); test: as above; format: biochemical; settings: Hill coefficient, Phosphodiesterase 6
T3 construct: IC50; other: Phosphodiesterase 6 (bovine retina); nH; other: Hill coefficient, Phosphodiesterase 6
T3 sequence (P11541 2-856): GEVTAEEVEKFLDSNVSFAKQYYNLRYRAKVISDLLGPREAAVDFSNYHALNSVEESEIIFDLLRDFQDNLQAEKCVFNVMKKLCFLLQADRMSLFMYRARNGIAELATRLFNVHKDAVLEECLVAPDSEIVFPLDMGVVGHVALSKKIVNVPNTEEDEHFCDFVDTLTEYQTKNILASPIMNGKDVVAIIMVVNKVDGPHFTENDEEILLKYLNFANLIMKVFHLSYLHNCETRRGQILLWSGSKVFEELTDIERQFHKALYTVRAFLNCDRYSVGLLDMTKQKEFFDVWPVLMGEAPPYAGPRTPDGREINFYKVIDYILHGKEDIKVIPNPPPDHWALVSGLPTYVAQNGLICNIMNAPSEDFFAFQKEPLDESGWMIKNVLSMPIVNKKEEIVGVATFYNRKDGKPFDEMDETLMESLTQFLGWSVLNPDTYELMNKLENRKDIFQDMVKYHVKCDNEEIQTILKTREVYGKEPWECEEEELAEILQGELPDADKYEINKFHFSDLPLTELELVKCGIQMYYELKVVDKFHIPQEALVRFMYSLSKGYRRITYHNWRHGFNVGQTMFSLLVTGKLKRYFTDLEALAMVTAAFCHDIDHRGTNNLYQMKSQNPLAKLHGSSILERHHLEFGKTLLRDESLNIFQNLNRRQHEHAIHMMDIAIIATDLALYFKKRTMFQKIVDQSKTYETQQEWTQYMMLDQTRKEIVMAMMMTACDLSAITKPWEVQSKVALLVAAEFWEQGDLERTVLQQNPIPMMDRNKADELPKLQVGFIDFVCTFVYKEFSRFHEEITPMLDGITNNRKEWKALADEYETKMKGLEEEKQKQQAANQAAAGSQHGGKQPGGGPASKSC
T3 sequence (P23439 2-850): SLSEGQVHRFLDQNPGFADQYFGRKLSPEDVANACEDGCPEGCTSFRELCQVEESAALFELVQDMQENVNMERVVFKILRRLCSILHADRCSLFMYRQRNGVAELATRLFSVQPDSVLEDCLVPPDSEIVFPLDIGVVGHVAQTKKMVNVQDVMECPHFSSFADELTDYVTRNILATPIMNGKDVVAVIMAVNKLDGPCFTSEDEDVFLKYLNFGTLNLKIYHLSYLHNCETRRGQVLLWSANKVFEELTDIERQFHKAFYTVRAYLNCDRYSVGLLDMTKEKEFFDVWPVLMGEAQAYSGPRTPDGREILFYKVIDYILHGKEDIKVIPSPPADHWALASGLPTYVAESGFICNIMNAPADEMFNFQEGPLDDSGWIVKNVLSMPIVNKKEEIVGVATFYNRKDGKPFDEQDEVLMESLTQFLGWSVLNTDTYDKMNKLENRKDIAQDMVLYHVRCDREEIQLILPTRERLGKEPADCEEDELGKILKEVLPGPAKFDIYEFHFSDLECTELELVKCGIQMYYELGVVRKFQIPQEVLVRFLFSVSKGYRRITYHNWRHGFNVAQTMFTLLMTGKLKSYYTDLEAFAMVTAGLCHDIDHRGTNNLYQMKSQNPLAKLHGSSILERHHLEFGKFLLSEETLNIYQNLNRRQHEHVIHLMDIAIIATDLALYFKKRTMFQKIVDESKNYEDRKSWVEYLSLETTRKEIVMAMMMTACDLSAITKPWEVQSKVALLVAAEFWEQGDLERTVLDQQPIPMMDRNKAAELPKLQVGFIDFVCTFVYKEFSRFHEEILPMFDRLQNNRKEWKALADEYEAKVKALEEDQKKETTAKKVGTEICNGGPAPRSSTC
T3 sequence (P04972 whole entry partner): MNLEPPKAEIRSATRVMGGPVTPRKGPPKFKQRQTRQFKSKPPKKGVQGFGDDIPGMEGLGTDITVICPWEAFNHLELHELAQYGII
Description: as §1, §2

phosphodiesterase [4] = target: T4, phosphodiesterase; test: as above; format: biochemical; settings: Phosphodiesterase 4 (h)
T4 construct: IC50; other: Phosphodiesterase 4 (h); nH; other: Hill coefficient, Phosphodiesterase 4 (h)
Description: as §1, §2

[5] = Solubility when preparing the topical solution; format: physicochemical
Description: (§3) An aliquot of a representative presently disclosed compound was stored in an amber glass vial and stored at 25° C. […] 0.1 mL of this solution was diluted into 0.9 mL 190 proof alcohol to prepare a 0.5% solution.

[6] = test system: arachidonic acid-induced ear edema; test: Arachidonic acid-induced mouse ear edema model; format: in vivo; settings: for inhibition of the irritant-induced ear edema: thirty minutes prior to arachidonic acid challenge; for Change in Ear Weight (mg) Average / % Inhibition / Ear Weight (mg) Left (−AA) / Ear Weight (mg) Right (+AA): topical; for % Inhibition: change in ear weight vs vehicle; for Ear Weight (mg) Left (−AA) / Ear Weight (mg) Right (+AA): individual mice
Description: This example was carried out in male BALB/c mice. 42 BALB/c mice (Harlan Sprague-Dawley, Inc., male, PO # 452036, R #2449, 5-6 weeks) were received, individually examined, and housed in four cages of ten mice each and one cage containing two mice. Each animal was in apparent good health: no clinical signs of disease or distress. The animals were placed in quarantine with daily inspections.
as §3
30 mg indomethacin (Sigma Cat. I-7378, lot 60K0745) was dissolved in 5 ml 0.1 M NaHCO3 to prepare a 6 mg/mL solution.
48.9 μL arachidonic acid (Sigma Cat. A-9673. lot 057K1620) was dissolved in 450 μL 190 proof alcohol to prepare a 100 mg/mL solution.
The mice were numbered and weighed. The mice in Groups 1, 3, 4 were topically treated on both sides of both ears with either 25 μL 190 proof alcohol, 5% 5-(2-(4-Methoxyphenyl)-1H-benzo[d]imidazol-1-yl)pentylboronic acid, or 0.5% 5-(2-(4-Methoxyphenyl)-1H-benzo[d]imidazol-1-yl)pentylboronic acid. The mice in Group 2 were injected intraperitoneally with 5 mL/kg indomethacin (30 mg/kg). Thirty minutes after 190 proof alcohol, indomethacin, or 5-(2-(4-Methoxyphenyl)-1H-benzo[d]imidazol-1-yl)pentylboronic acid application/administration, 5 μL of the arachidonic acid solution was applied to the dorsal and ventral sides of the right ear. The contralateral ear was treated with 190 proof alcohol. One hour after alcohol/arachidonic acid application, the mice were euthanized, the ears removed and the ear weights recorded.
Significance (p-value) was calculated using Student's T-test. The effect of prophylactic topical treatment with a representative presently disclosed compound on arachidonic acid-induced murine ear edema is shown in FIG. 16.

HERG channel = HERG channel (Homo sapiens, UniProt Q12809); test: ADME-Tox: QT Prolongation, HERG (patch-clamp)
Chain of HERG channel (Q12809 whole entry): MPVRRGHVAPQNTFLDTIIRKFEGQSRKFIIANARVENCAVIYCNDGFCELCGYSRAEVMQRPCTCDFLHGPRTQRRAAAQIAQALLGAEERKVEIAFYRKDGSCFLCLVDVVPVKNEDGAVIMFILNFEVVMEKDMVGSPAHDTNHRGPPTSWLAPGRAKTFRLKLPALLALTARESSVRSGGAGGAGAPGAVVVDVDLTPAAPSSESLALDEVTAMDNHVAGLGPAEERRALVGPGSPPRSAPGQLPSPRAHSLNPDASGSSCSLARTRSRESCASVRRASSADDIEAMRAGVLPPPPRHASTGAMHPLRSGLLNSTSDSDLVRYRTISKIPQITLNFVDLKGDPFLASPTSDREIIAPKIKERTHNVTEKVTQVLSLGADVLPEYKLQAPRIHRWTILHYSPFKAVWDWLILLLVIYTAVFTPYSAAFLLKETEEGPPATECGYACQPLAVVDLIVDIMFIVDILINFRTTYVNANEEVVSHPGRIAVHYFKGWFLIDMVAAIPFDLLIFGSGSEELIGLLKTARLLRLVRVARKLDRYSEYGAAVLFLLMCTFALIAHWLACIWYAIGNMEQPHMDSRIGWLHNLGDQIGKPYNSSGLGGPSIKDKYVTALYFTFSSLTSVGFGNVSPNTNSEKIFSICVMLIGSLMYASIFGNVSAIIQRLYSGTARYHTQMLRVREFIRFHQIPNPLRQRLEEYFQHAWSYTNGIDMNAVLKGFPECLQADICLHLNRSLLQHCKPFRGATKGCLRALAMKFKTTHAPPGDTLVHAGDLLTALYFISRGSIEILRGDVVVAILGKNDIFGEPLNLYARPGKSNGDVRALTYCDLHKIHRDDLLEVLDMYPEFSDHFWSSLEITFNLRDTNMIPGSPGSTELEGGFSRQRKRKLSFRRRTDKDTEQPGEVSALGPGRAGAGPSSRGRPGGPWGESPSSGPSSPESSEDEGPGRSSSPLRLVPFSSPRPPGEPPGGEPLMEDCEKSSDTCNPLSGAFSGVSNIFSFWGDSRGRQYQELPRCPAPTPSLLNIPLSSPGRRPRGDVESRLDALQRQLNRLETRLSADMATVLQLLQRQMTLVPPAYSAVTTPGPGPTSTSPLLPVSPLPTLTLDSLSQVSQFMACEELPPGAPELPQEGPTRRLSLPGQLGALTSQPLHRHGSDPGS

hERG = hERG (Homo sapiens, UniProt Q12809); test: ADME-Tox: QT Prolongation, HERG (patch-clamp); settings: human, HEK-293 cells stably expressing HERG
Chain of hERG (Q12809 whole entry): as above

TNF-α production by PMBC = test: Inhibition of TNF-α Production By Peripheral Blood Monocyte Cells (PMBC), LPS stimulated; format: cell-based; settings: 1 ug/mL LPS, 24 hours
Description: PMBC in RPMI 1640 Cell Culture Medium (containing 1% Penicillin and 1% Streptomycin) are aliquoted into 96-well plates at 5×10^5 cells/well and pre-incubated with test compounds for 30 minutes at 37° C. After incubation, 1 ug/mL LPS is added to each well to stimulate TNF-α production and the plate is incubated for 24 hours at 37° C. After incubation, the supernatant is removed and the TNF-α secreted is quantified using EIA detection kits commercially available from R&D Systems (USA). The results from this assay are expressed as percent inhibition of control activity, with the control being stimulated wells with no test compound. Dexamethasone is used as a standard reference compound in the assay and is tested with each experiment. All test compounds are diluted from 10 mM stock solutions in 100% DMSO.

T1 sequence (O00408 whole entry): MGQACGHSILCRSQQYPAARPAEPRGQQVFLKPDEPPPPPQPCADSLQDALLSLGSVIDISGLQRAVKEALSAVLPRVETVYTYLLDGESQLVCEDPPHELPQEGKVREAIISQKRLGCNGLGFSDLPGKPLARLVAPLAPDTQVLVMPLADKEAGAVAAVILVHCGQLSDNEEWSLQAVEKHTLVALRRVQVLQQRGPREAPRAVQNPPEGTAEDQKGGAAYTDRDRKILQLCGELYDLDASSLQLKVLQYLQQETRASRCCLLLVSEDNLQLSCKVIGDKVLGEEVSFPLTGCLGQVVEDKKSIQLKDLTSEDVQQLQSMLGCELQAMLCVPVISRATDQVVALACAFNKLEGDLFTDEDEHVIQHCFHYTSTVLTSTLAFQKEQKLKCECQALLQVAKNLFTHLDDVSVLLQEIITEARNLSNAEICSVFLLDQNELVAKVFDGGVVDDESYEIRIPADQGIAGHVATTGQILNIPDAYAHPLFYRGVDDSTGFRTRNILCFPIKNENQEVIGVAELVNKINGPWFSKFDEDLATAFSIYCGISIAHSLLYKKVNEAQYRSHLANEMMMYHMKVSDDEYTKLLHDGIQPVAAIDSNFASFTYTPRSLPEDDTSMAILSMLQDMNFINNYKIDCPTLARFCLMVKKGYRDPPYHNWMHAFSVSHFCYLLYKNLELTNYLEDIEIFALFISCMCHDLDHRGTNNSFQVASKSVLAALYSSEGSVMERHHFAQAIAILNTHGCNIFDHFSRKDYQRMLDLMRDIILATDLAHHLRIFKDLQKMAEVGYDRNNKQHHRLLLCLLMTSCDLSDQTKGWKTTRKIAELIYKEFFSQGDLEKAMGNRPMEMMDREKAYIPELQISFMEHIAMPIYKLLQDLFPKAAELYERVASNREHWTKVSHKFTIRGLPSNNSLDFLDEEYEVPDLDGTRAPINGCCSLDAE

Q: Which nH (phosphodiesterase [1]; Hill coefficient, Phosphodiesterase 2(h)) does the source give for `COc1ccc(-c2nc3ccccc3n2CCCCCB(O)O)cc1` [Example 7, 5-(2-(4-Methoxyphenyl)-1H-benzo[d]imidazol-1-yl)pentylboronic acid] here?
A: The nH was 0.8.

Q: And the IC50 (phosphodiesterase [1]; Phosphodiesterase 2 (h))?
A: Its IC50 is 110 nM.

Q: And the nH (phosphodiesterase [2]; Hill coefficient, Phosphodiesterase 5(h))?
A: Its nH is 0.7.

Q: And the IC50 (phosphodiesterase [2]; Phosphodiesterase 5 (h))?
A: Its IC50 is 960 nM.

Q: What about the nH (phosphodiesterase [3]) of the same compound?
A: The nH was 0.9.

Q: And the IC50 (phosphodiesterase [4])?
A: Its IC50 is 420 nM.

Q: What about the solubility in acetone [5] of the same compound?
A: Its solubility in acetone is “not soluble in acetone”.

Q: And the “inhibition of the irritant-induced ear edema” value ([6]; 0.5% solution topical)?
A: The value was 12%.

Q: And the “Change in Ear Weight (mg) Average” value ([6]; 0.5%)?
A: Its value is 44.1 mg.

Q: And the “inhibition of the irritant-induced ear edema” value ([6]; 5% solution topical)?
A: The value was 46%.

Q: What about the “Change in Ear Weight (mg) Average” value ([6]; 5%) of the same compound?
A: The value was 26.9 mg.

Q: And the “% Inhibition” value ([6]; 0.5%)?
A: Its value is 12.2%.

Q: What about the “% Inhibition” value ([6]; 5%) of the same compound?
A: The value was 46.4%.

Q: And the “Ear Weight (mg) Left (−AA)” value ([6]; 0.5%)?
A: The value was 22 mg (2×) and 20 mg (4×) and 34 mg and 23 mg and 24 mg and 21 mg.

Q: And the “Ear Weight (mg) Right (+AA)” value ([6]; 0.5%)?
A: Its value is 76 mg and 63 mg and 55 mg and 82 mg and 78 mg and 50 mg and 62 mg and 77 mg and 60 mg and 64 mg.

Q: And the “Ear Weight (mg) Left (−AA)” value ([6]; 5%)?
A: Its value is 23 mg (3×) and 24 mg (2×) and 22 mg (3×) and 20 mg and 21 mg.

Q: And the “Ear Weight (mg) Right (+AA)” value ([6]; 5%)?
A: The value was 50 mg and 48 mg and 57 mg and 42 mg and 55 mg and 51 mg and 53 mg and 49 mg and 44 mg (2×).

Q: What about the “Potency Ranking” value (HERG channel; HERG-channel blocker ranking, from 1 μM test (Table 21)) of the same compound?
A: The value was “Moderate/High”.

Q: What about the “HERG-channel blocker potency class” value (HERG channel; general potency ranking system (Roche et al.)) of the same compound?
A: The value was “moderate/high”.

Q: What about the inhibition at 1 µM (hERG) of the same compound?
A: The inhibition at 1 µM was 49.7%.

Q: And the IC50 (TNF-α production by PMBC)?
A: The IC50 was 200 nM.

From patent US20090264384A1, “INDOLE, BENZIMIDAZOLE, AND BENZOLACTAM BORONIC ACID COMPOUNDS, ANALOGS THEREOF AND METHODS OF USE THEREOF” (Nuada, Inc., priority 2004, published 2009)
